Measured values published in patent US12227482B2, “Compounds and compositions for the treatment of cancer” (The Regents of the University of California, priority 2016, dated 2025).

Experiments:
Assay type in all cases: cell-based
A549 cells = assay: Cell viability (CellTiter-Glo ATP content) in A549 cells; conditions: Homo sapiens, A549, 72 h, 72 hours treatment, cell survival by CellTiter-Glo, 2% fetal bovine serum
Experimental: (§1) Logarithmically growing A549, LOX and MelJuSo cells (ATCC) were plated in antibiotic-free RPMI medium (Coming) supplemented with 2% fetal bovine serum (Gemini Bio-products) at a density of 5,000 cells per well in clear-bottom 96-well plates. The next day cells were treated (triplicates) with increasing doses of a compound of the present disclosure (dissolved in DMSO) and DMSO vehicle controls (final DMSO concentration of 0.5%) for 72 hours and subsequently assessed for cell viability by measuring ATP content with CellTiter-Glo Luminescent Cell Viability Assay (Promega). Signal intensity was measured on a Glomax™ 96 Microplate Luminometer (Promega) and percent cell survival was calculated based on the reading of vehicle control cells set as 100%.

LOX cells = assay: Cell viability (CellTiter-Glo ATP content) in LOX cells; conditions: LOX, 72 h, 72 hours treatment, cell survival by CellTiter-Glo, 2% fetal bovine serum
Experimental: as §1

MelJuSo cells = assay: Cell viability (CellTiter-Glo ATP content) in MelJuSo cells; conditions: Homo sapiens, MEL-JUSO, 72 hours treatment, cell survival by CellTiter-Glo, 2% fetal bovine serum
Experimental: as §1

SMILES	IC50 (A549 cells) [µM]	IC50 (LOX cells) [µM]	IC50 (MelJuSo cells) [µM]
CCCCC1C(c2ccc(F)cc2)=NN(c2ccccc2)C1(C)C(=O)NCCCC(C)(C)CO (centres unmarked) [Compound 1, 4-butyl-3-(4-fluorophenyl)-N-(5-hydroxy-4,4-dimethylpentyl)-5-methyl-1-phenyl-4,5-dihydro-1H-pyrazole-5-carboxamide]	0.5 to 1	0.5 to 1	0.25 to 0.5
CCCCC1C(c2ccc(F)cc2)=NN(c2ccccc2)C1(C)C(=O)NCCCCC(C)(C)O (centres unmarked) [Compound 2, 4-butyl-3-(4-fluorophenyl)-N-(5-hydroxy-5-methylhexyl)-5-methyl-1-phenyl-4,5-dihydro-1H-pyrazole-5-carboxamide]	1 to 2	1 to 2	0.5 to 1
CCCCC1C(c2ccc(F)cc2)=NN(c2ccc(F)cc2F)C1(C)C(=O)NCCCC(C)(C)CO (centres unmarked) [Compound 3, 4-butyl-1-(2,4-difluorophenyl)-3-(4-fluorophenyl)-N-(5-hydroxy-4,4-dimethylpentyl)-5-methyl-4,5-dihydro-1H-pyrazole-5-carboxamide]	0.5 to 1	0.5 to 1	0.5 to 1
CCCCC1C(c2ccc(F)cc2)=NN(c2ccc(F)cc2F)C1(C)C(=O)NCCCCC(C)(C)O (centres unmarked) [Compound 4, 4-butyl-1-(2,4-difluorophenyl)-3-(4-fluorophenyl)-N-(5-hydroxy-5-methylhexyl)-5-methyl-4,5-dihydro-1H-pyrazole-5-carboxamide]	0.5 to 1	0.5 to 1	0.5 to 1
CCCCC1C(c2ccc(F)cc2)=NN(c2ccc(F)cc2F)C1(C)C(=O)NCCCOC (centres unmarked) [Compound 5, 4-butyl-1-(2,4-difluorophenyl)-3-(4-fluorophenyl)-N-(3-methoxypropyl)-5-methyl-4,5-dihydro-1H-pyrazole-5-carboxamide]	1 to 2	1 to 2	0.5 to 1
CCCCC1C(c2ccc(F)cc2)=NN(c2ccc(F)cc2F)C1(C)C(=O)NCCOC (centres unmarked) [Compound 6, 4-butyl-1-(2,4-difluorophenyl)-3-(4-fluorophenyl)-N-(2-methoxyethyl)-5-methyl-4,5-dihydro-1H-pyrazole-5-carboxamide]	0.5 to 1	0.5 to 1	0.5 to 1
CCCCC1C(c2ccc(F)cc2)=NN(c2cccc(F)c2)C1(C)C(=O)NCCCCC(C)(C)O (centres unmarked) [Compound 7, 4-butyl-1-(3-fluorophenyl)-3-(4-fluorophenyl)-N-(5-hydroxy-5-methylhexyl)-5-methyl-4,5-dihydro-1H-pyrazole-5-carboxamide]	> 2	1 to 2	0.5 to 1
CCCCC1C(c2ccc(F)cc2)=NN(c2cccc(F)c2)C1(C)C(=O)NCCCOC (centres unmarked) [Compound 8, 4-butyl-1-(3-fluorophenyl)-3-(4-fluorophenyl)-N-(3-methoxypropyl)-5-methyl-4,5-dihydro-1H-pyrazole-5-carboxamide]	> 2	> 2	1 to 2
CCCCC1C(c2ccc(F)cc2)=NN(c2cc(F)ccc2F)C1(C)C(=O)NCCCCC(C)(C)O (centres unmarked) [Compound 9, 4-butyl-1-(2,5-difluorophenyl)-3-(4-fluorophenyl)-N-(5-hydroxy-5-methylhexyl)-5-methyl-4,5-dihydro-1H-pyrazole-5-carboxamide]	1 to 2	0.5 to 1	0.5 to 1
CCCCC1C(c2ccc(F)c(F)c2)=NN(c2ccccc2)C1(C)C(=O)NCCCCC(C)(C)O (centres unmarked) [Compound 10, 4-butyl-3-(3,4-difluorophenyl)-N-(5-hydroxy-5-methylhexyl)-5-methyl-1-phenyl-4,5-dihydro-1H-pyrazole-5-carboxamide]	> 2	1 to 2	0.5 to 1
CCCCC1C(c2ccc(F)cc2)=NN(c2ccc(F)c(Cl)c2)C1(C)C(=O)NCCCCC(C)(C)O (centres unmarked) [Compound 11, 4-butyl-1-(3-chloro-4-fluorophenyl)-3-(4-fluorophenyl)-N-(5-hydroxy-5-methylhexyl)-5-methyl-4,5-dihydro-1H-pyrazole-5-carboxamide]	> 2	> 2	1 to 2
CCCCC1C(c2ccc(F)cc2)=NN(c2ccc(Cl)cc2)C1(C)C(=O)NCCCC(C)(C)CO (centres unmarked) [Compound 12, 4-butyl-1-(4-chlorophenyl)-3-(4-fluorophenyl)-N-(5-hydroxy-4,4-dimethylpentyl)-5-methyl-4,5-dihydro-1H-pyrazole-5-carboxamide]	> 2	1 to 2	1 to 2
CCCCC1C(c2ccc(F)cc2)=NN(c2ccc(Cl)cc2)C1(C)C(=O)NCCCOC (centres unmarked) [Compound 13, 4-butyl-1-(4-chlorophenyl)-3-(4-fluorophenyl)-N-(3-methoxypropyl)-5-methyl-4,5-dihydro-1H-pyrazole-5-carboxamide]	> 2	> 2	> 2
CCCCC1C(c2ccc(F)cc2)=NN(c2ccc(F)cc2)C1(C)C(=O)NCCCOC (centres unmarked) [Compound 14, 4-butyl-1,3-bis(4-fluorophenyl)-N-(3-methoxypropyl)-5-methyl-4,5-dihydro-1H-pyrazole-5-carboxamide]	> 2	1 to 2	1 to 2
CCCCC1C(c2ccc(F)cc2)=NN(c2ccc(C)cc2)C1(C)C(=O)NCCCC(C)(C)CO (centres unmarked) [Compound 15, 4-butyl-3-(4-fluorophenyl)-N-(5-hydroxy-4,4-dimethylpentyl)-5-methyl-1-p-tolyl-4,5-dihydro-1H-pyrazole-5-carboxamide]	1 to 2	0.25 to 0.5	0.25 to 0.5
CCCCC1C(c2ccc(F)cc2)=NN(c2ccc(C)cc2)C1(C)C(=O)NCCCOC (centres unmarked) [Compound 16, 4-butyl-3-(4-fluorophenyl)-N-(3-methoxypropyl)-5-methyl-1-p-tolyl-4,5-dihydro-1H-pyrazole-5-carboxamide]	> 2	> 2	0.5 to 1
CCCCC1C(c2ccc(F)cc2)=NN(c2cccc(Cl)c2)C1(C)C(=O)NCCCC(C)(C)CO (centres unmarked) [Compound 17, 4-butyl-1-(3-chlorophenyl)-3-(4-fluorophenyl)-N-(5-hydroxy-4,4-dimethylpentyl)-5-methyl-4,5-dihydro-1H-pyrazole-5-carboxamide]	1 to 2	1 to 2	0.25 to 0.5
CCCCC1C(c2ccc(F)cc2)=NN(c2ccc(F)c(OC)c2)C1(C)C(=O)NCCCC(C)(C)CO (centres unmarked) [Compound 18, 4-butyl-1-(4-fluoro-3-methoxyphenyl)-3-(4-fluorophenyl)-N-(5-hydroxy-4,4-dimethylpentyl)-5-methyl-4,5-dihydro-1H-pyrazole-5-carboxamide]	> 2	> 2	> 2
CCCCC1C(c2ccc(F)cc2)=NN(c2ccc(F)c(OC)c2)C1(C)C(=O)NCCCOC (centres unmarked) [Compound 19, 4-butyl-1-(4-fluoro-3-methoxyphenyl)-3-(4-fluorophenyl)-N-(3-methoxypropyl)-5-methyl-4,5-dihydro-1H-pyrazole-5-carboxamide]	> 2	> 2	> 2
CC(C)(CO)CCCNC(=O)C1(C)C(c2cccs2)C(c2ccc(F)cc2)=NN1c1ccccc1 (centres unmarked) [Compound 20, 3-(4-fluorophenyl)-N-(5-hydroxy-4,4-dimethylpentyl)-5-methyl-1-phenyl-4-(thiophen-2-yl)-4,5-dihydro-1H-pyrazole-5-carboxamide]	0.5 to 1	0.5 to 1	0.25 to 0.5
CC(C)(CO)CCCNC(=O)C1(C)C(c2ccncc2)C(c2ccc(F)cc2)=NN1c1ccccc1 (centres unmarked) [Compound 21, 3-(4-fluorophenyl)-N-(5-hydroxy-4,4-dimethylpentyl)-5-methyl-1-phenyl-4-(pyridin-4-yl)-4,5-dihydro-1H-pyrazole-5-carboxamide]	> 2	> 2	> 2
CCCCC1C(c2ccc(F)cc2)=NN(c2ccc(F)cc2Cl)C1(C)C(=O)NCCCC(C)(C)CO (centres unmarked) [Compound 22, 4-butyl-1-(2-chloro-4-fluorophenyl)-3-(4-fluorophenyl)-N-(5-hydroxy-4,4-dimethylpentyl)-5-methyl-4,5-dihydro-1H-pyrazole-5-carboxamide]	> 2	> 2	> 2
Cn1cccc1C1C(c2ccc(F)cc2)=NN(c2ccc(F)cc2F)C1(C)C(=O)NCCCC(C)(C)CO (centres unmarked) [Compound 93, 1-(2,4-difluorophenyl)-3-(4-fluorophenyl)-N-(5-hydroxy-4,4-dimethylpentyl)-5-methyl-4-(1-methyl-1H-pyrrol-2-yl)-4,5-dihydro-1H-pyrazole-5-carboxamide]	> 2		> 2
COCCNC(=O)C1(C)C(c2cccn2C)C(c2ccc(F)cc2)=NN1c1ccc(F)cc1F (centres unmarked) [Compound 94, 1-(2,4-difluorophenyl)-3-(4-fluorophenyl)-N-(2-methoxyethyl)-5-methyl-4-(1-methyl-1H-pyrrol-2-yl)-4,5-dihydro-1H-pyrazole-5-carboxamide]	> 2		> 2
Cn1cc(C2C(c3ccc(F)cc3)=NN(c3ccc(F)cc3F)C2(C)C(=O)NCCCC(C)(C)CO)cn1 (centres unmarked) [Compound 95, 1-(2,4-difluorophenyl)-3-(4-fluorophenyl)-N-(5-hydroxy-4,4-dimethylpentyl)-5-methyl-4-(1-methyl-1H-pyrazol-4-yl)-4,5-dihydro-1H-pyrazole-5-carboxamide]	> 2		> 2
COCCNC(=O)C1(C)C(c2cnn(C)c2)C(c2ccc(F)cc2)=NN1c1ccc(F)cc1F (centres unmarked) [Compound 96, 1-(2,4-difluorophenyl)-3-(4-fluorophenyl)-N-(2-methoxyethyl)-5-methyl-4-(1-methyl-1H-pyrazol-4-yl)-4,5-dihydro-1H-pyrazole-5-carboxamide]	> 2		> 2
